The values that follow come from patent US11364247B2, “Methods of treatment of partial onset seizures using eslicarbazepine acetate” (BIAL-PORTELA & CA S.A., priority 2005, dated 2022).

Data set [1] is described as follows: Study in epileptic patients: trough plasma concentrations of BIA 2-005. Type of data set: in vivo, human. The source says: This clinical trial was a double-blind, randomized, placebo-controlled study performed by 20 centers in Croatia, Czech Republic, Germany, Lithuania and Poland. The stated objectives of the study were to assess the efficacy and safety of BIA 2-093 as adjunctive therapy in patients with refractory partial epilepsy. In total, 143 patients aged 18-65 years with at least 4 partial-onset seizures per month in spite of treatment with 1 or 2 antiepileptic drugs (AEDs) (e.g., phenytoin, valproate, primidone, phenobarbital, lamotrigine, gabapentin, topiramate or clonazepam) were randomly assigned to one of three groups: treatment with placebo (n=47), BIA 2-093 once-daily (n=50), or BIA 2-093 twice-daily (n=46), during 12 weeks (plus 1 week of tapering off). For the first 4 weeks, daily dose was 400 mg. Then, daily doses were increased to 800 mg (weeks 5-8), and finally to 1200 mg (weeks 9-12). Tablets with strengths of 200 mg, 400 mg, and 600 mg eslicarbazepine acetate and placebo tablets were manufactured by BIAL (S. Mamede do Coronado, Portugal) in accordance with Good Manufacturing Practice. The assay plasma to determine the concentration of BIA 2-005 was performed with a non-chiral method using isocratic liquid chromatography (LC) with single quadrupole mass spectrometric detection (MS), as described herein. See, e.g., Almeida I and Almeida II.
Plasma/serum samples for the “trough” (pre-dose) levels of BIA 2-005 and concomitant AEDs were collected at all visits but V5 (post-study visit). The objective was to characterize the influence of eslicarbazepine acetate on the pharmacokinetic behavior of the concomitant AEDs (e.g., phenytoin, valproate, primidone, phenobarbital, lamotrigine, gabapentin, topiramate, and clonazepam).

The nature of data set [2]: Entry-into-man studies in healthy subjects (Almeida I, Almeida II), plasma and urine pharmacokinetics. Type of data set: in vivo, human. The source says:
Studies in humans have shown that, after oral administration, eslicarbazepine acetate appears to be rapidly and extensively metabolized to the active metabolite eslicarbazepine and, in a minor extent, to R-licarbazepine. See Silveira et al., “BIA 2-093 Pharmacokinetics in Healthy Elderly Subjects,” Epilepsia, 45 (suppl. 3), 157 (2004). […] See Almeida I; Almeida, L. & Soares-da-Silva, P., “Safety, Tolerability and Pharmacokinetic Profile of BIA 2-093, a Novel Putative Antiepileptic Agent, during First Administration to Humans,” Drugs R&D, 4, 269-284 (2003) (herein referred to as “Almeida II”).
The inventors performed entry-into-man studies in healthy subjects, the results of which they described in the Almeida I and Almeida II articles, both of which are hereby incorporated by reference. In these studies, the healthy subjects received a single oral dose of eslicarbazepine acetate wherein the dose ranged from 20 mg to 1200 mg (see Almeida II), and multiple daily-doses of eslicarbazepine acetate ranging from 200 mg twice-daily to 1200 mg once-daily (see Almeida I). Further studies (not yet published) by the inventors have investigated higher doses of eslicarbazepine acetate, including, for example, doses ranging up to 2400 mg once-daily.

A short description of data set [3]: Trial A: steady-state pharmacokinetics of once-daily and twice-daily regimens in healthy volunteers. It is filed as in vivo, human. The conditions noted are these: arithmetic mean; for AUC0-t / AUC0-∞ / Cmax / t1/2 / tmax: after last dose (8 days). The method, then: This human pharmacology trial was a study to investigate the steady-state pharmacokinetics of once-daily and twice-daily regimens of eslicarbazepine acetate in healthy subjects. The study was a single center, open-label, randomized, two-way crossover study in 12 healthy volunteers (6 males and 6 females) that consisted of two 8-day treatment periods separated by a washout period of 10-15 days. […] Tablets with a strength of 450 mg of eslicarbazepine acetate, manufactured by BIAL (S. Mamede do Coronado, Portugal) in accordance with Good Manufacturing Practice, were used.
Blood samples for drug plasma assays were taken at the following times: […]
Blood samples were drawn either by direct venipuncture or via an intravenous catheter into lithium heparin tubes and centrifuged at approximately 1500 g for 10 minutes at 4° C. The resulting plasma was separated into 2 equal aliquots of 1 mL and stored at −20° C. until required for analysis.
Plasma concentrations of eslicarbazepine acetate, eslicarbazepine, and R-licarbazepine were determined using isocratic liquid chromatography (LC) with single quadrupole mass spectrometric detection (MS).
The method involved the addition of 500 μL of approximately 0.5 μg/mL of 10,11-dihydrocarbamazepine (internal standard prepared in acetonitrile:water, 3:97, v:v) to 250 μL of plasma (centrifuged at 1800 rpm, prior to analysis) in a polypropylene tube. After vortex mixing for 10 seconds, the mixture was transferred to a Schleicher and Schuell C18/100 mg 96 well solid phase extraction plate. Each well was preconditioned with 800 μL methanol, followed by 800 μL acetonitrile and 800 μL acetonitrile:water (3:97, v:v) prior to application of the total sample volume. Each polypropylene tube was then washed with 500 μL acetonitrile:water (3:97, v:v) and the washings transferred to the respective well. The compounds were eluted into a collection plate with 750 μL acetonitrile and the extract evaporated to dryness under oxygen-free nitrogen, at 40° C. All solid phase extraction manipulations were undertaken using the Tomtec QUADRA 96® Model 320 system and a vacuum was applied at each elution step. The final extract was reconstituted in 100 μL of water:methanol (90:10, v:v) and mixed. The collection plate was then centrifuged at approximately 3000 rpm (at approximately 4° C., for approximately 10 minutes) prior to analysis. An aliquot of the final extract (10 μL) was injected onto the LC-MS system.
The LC-MS system used in the analysis consisted of a Perkin Elmer series 200 micro pump, a Perkin Elmer series 200 autosampler, and a Perkin Elmer/Sciex API 150EX single quadrupole mass spectrometer fitted with a Turbo IonSpray® source. Separation was achieved using a LichroCART 250-4 ChiraDex column (β-cyclodextrin, 5 μm), a LichroCART 4-4 ChiraDex column guard column (β-cyclodextrin, 5 μm), a Jones Chromatography 7971 column heater at 50° C., a mobile phase A (0.2 mM sodium acetate, aq) and a mobile phase B (0.2 mM sodium acetate, MeOH). The MS detector was operated in positive ion mode with mass transitions for BIA 2-093, eslicarbazepine, R-licarbazepine, and the internal standard of 319.16 amu (200 ms), 277.08 amu (200 ms), 277.08 amu (200 ms) and 261.05 amu (200 ms), respectively. The limit of quantification of the assay was 10 ng/mL for eslicarbazepine acetate and 100 ng/mL for eslicarbazepine and R-licarbazepine.
Eslicarbazepine acetate, (S)-(−)-10-acetoxy-10,11-dihydro-5H-dibenz/b,f/azepine-5-carboxamide; eslicarbazepine, (S)-(+)-10,11-dihydro-10-hydroxy-5H dibenz/b,f/azepine-5-carboxamide; and R-licarbazepine, (R)-(−)-10,11-dihydro-10-hydroxy-5H dibenz/b,f/azepine-5-carboxamide, were synthesized in the Laboratory of Chemistry, BIAL, with purities>99.5%. The internal standard, 10,11-dihydrocarbamazepine was supplied by Sigma-Aldrich (St. Louis, Mo.).
The pharmacokinetic parameters were derived from non-compartmental analysis using WinNonlin (Version 4.0, Pharsight Corporation, Mountain View, Calif.). […]

Data set [4] deals with refractory partial epilepsy (partial-onset seizures). Kind of data set: Study in epileptic patients: efficacy as adjunctive therapy. It is filed as in vivo, human. The conditions noted are these: once-daily group compared with the other groups. The method, then:
This clinical trial was a double-blind, randomized, placebo-controlled study performed by 20 centers in Croatia, Czech Republic, Germany, Lithuania and Poland. The stated objectives of the study were to assess the efficacy and safety of BIA 2-093 as adjunctive therapy in patients with refractory partial epilepsy. […] For the first 4 weeks, daily dose was 400 mg. Then, daily doses were increased to 800 mg (weeks 5-8), and finally to 1200 mg (weeks 9-12). Tablets with strengths of 200 mg, 400 mg, and 600 mg eslicarbazepine acetate and placebo tablets were manufactured by […] do Coronado, Portugal) in accordance with Good Manufacturing Practice. […] See, […] and Almeida II. The proportion of patients with a 50% or greater reduction in seizure frequency in the treatment period compared to the baseline period in the intention-to-treat (ITT) population (n=143) was the primary efficacy endpoint. […] The proportion of responders in the once-daily group (54%) was also higher than in the twice-daily (41%) group. […] At this dose level, no significant difference was found between the twice-daily and the placebo groups. Secondary endpoints include the reduction in total seizure frequency, proportion of seizure-free patients, distribution of responders, comparison of once and twice daily regimens, and investigator's and patient's global evaluation.

Data set [5] can be described thus: Metabolic profile in liver microsomes, chiral analysis. It is filed as in vitro ADME. The settings on record: liver microsomes from rats, dogs, monkeys and humans, not the R(−) form. In general terms: Liver microsomes are vesicles of endoplasmic reticulum, rich in cytochrome P450 enzymes.
In data set [6] the test system is voltage-gated sodium channel (VGSC). The conditions noted are these: compared with carbamazepine; cited from earlier work.
A short description of data set [7]: Trial B: pharmacokinetics following repeated once-daily doses over 8 days in healthy young male subjects. Type of data set: in vivo, human. The conditions noted are these: for tmax: male, human, plasma, oral, read-out: Median tmax. The method, then: (§1) This human pharmacology trial was a study to determine the pharmacokinetics of eslicarbazepine acetate following single and repeated doses. The study integrated the results of three double-blind, randomized, placebo-controlled trials. To measure the pharmacokinetics of eslicarbazepine acetate following single doses, oral single doses of eslicarbazepine acetate ranging from 20 mg to 2400 mg were administered to healthy young male subjects (6 subjects per dose). The pharmacokinetics of eslicarbazepine acetate following repeated doses were measured by administering repeated oral doses ranging from 400 mg to 2400 mg of eslicarbazepine acetate to healthy young male subjects (6 subjects per dose) over a period of 8 days. Analytical test methods and experimental procedures were similar to those described for Trial A above.

Data set [8] can be described thus: Trial B: pharmacokinetics following single doses in healthy young male subjects. Type of data set: in vivo, human. The method, then: as §1
The mark [9] stands for this setting: multiple oral dose of 900 mg eslicarbazepine acetate once-daily.
Where [10] appears, read: multiple oral dose of 900 mg eslicarbazepine acetate twice-daily.
Setting [11] is: single oral dose of 1200 mg eslicarbazepine acetate.

Take `NC(=O)N1c2ccccc2CC(O)c2ccccc21` (stereo not drawn) [BIA 2-005]: the “trough plasma concentration, mean (sd)” value in data set [1] (400 mg/day eslicarbazepine acetate, b.i.d. group) is 4.9 (2.3) μg/mL; in data set [1] (400 mg/day eslicarbazepine acetate, o.d. group) it was 4.0 (3.2) μg/mL; in data set [1] (800 mg/day eslicarbazepine acetate, b.i.d. group), 13.5 (9.6) μg/mL; in data set [1] (800 mg/day eslicarbazepine acetate, o.d. group) it was 10.7 (7.0) μg/mL; in data set [1] (1200 mg/day eslicarbazepine acetate, b.i.d. group), 15.5 (8.8) μg/mL; in data set [1] (1200 mg/day eslicarbazepine acetate, o.d. group) it was 14.6 (8.8) μg/mL. Further, in data set [2] (BIA 2-005, healthy subjects), the “mean renal clearance from plasma” value was in the range of 20 to 30 mL/min. Further, in data set [2] (BIA 2-005 after oral eslicarbazepine acetate, healthy subjects), the “extent of systemic exposure” value is “approximately dose-proportional”.

Regarding `NC(=O)N1c2ccccc2C[C@@H](O)c2ccccc21` [R-licarbazepine, (R)-(−)-10,11-dihydro-10-hydroxy-5H dibenz/b,f/azepine-5-carboxamide], in data set [3] (setting [9]), the AUC0-t is recorded as 19,600 ng · h/mL, the “AUC0-∞” value worked out at 23989 ng·h/mL, the Cmax stood at 674 ng/mL and the t1/2 worked out at 15.0 h. In addition, in data set [3] (setting [9]), the tmax amounted to 9.42 h. The AUC0-τ in data set [3] (multiple oral dose of 900 mg eslicarbazepine acetate once-daily, dosing interval 24 hours) is 13397 ng·h/mL. Moreover, in data set [3] (setting [10]), the AUC0-t is 19,661 ng · h/mL, the “AUC0-∞” value was 23807 ng·h/mL, the Cmax amounted to 718 ng/mL and the t1/2 amounted to 14.8 h. In data set [3] (setting [10]), this compound displayed a tmax of 6.40 h. The AUC0-τ in data set [3] (multiple oral dose of 900 mg eslicarbazepine acetate twice-daily, dosing interval 12 hours) is 7783 ng·h/mL.

As to `CC(=O)O[C@H]1Cc2ccccc2N(C(N)=O)c2ccccc21` [eslicarbazepine acetate, (S)-(−)-10-acetoxy-10,11-dihydro-5H-dibenz/b,f/azepine-5-carboxamide], the “assessment of efficacy by the investigator (CGI) and of acceptability by patient” value in data set [4] is “rated best”. Besides, the metabolite formed result in data set [5] is listed as “S(+) enantiomer of licarbazepine”. Besides, the “affinity for the resting state of the sodium channel, lower than that of carbamazepine” value in data set [6] is “about 3 fold”.

For `NC(=O)N1c2ccccc2C[C@H](O)c2ccccc21` [eslicarbazepine, (S)-(+)-10,11-dihydro-10-hydroxy-5H dibenz/b,f/azepine-5-carboxamide], the “Mean Cmax” value in data set [7] (last dose of 8-day repeated 800 mg o.d. eslicarbazepine acetate) is listed as 18,700 ng/mL. Besides, the tmax in data set [7] (last dose of 8-day repeated 1800 mg o.d. eslicarbazepine acetate) and in data set [7] (last dose of 8-day repeated 2400 mg o.d. eslicarbazepine acetate) was 2 h in each case. Further, the AUC0-t in data set [8] (male, human, plasma, single oral dose of 2400 mg eslicarbazepine acetate, read-out: Mean AUC0-24 h) came to 446000 ng·h/mL. In addition, the “Mean apparent t1/2” value is given as 9.1 h in data set [8] (single oral dose of 20 mg eslicarbazepine acetate) and 11.1 h in data set [8] (single oral dose of 2400 mg eslicarbazepine acetate). The Median tmax in data set [8] (single oral dose of 400 mg eslicarbazepine acetate), in data set [8] (single oral dose of 600 mg eslicarbazepine acetate) and in data set [8] (setting [11]) was 4 h in each case. Also, the “Mean AUC0-24 h” value in data set [8] (setting [11]) is recorded as 285,700 ng · h/mL.

The Cmax is the maximum level reached in the sampled fluid or tissue.
